The text below walks through data of paper PMC5552351, “Bacteriological profiling of diphenylureas as a novel class of antibiotics against methicillin-resistant Staphylococcus aureus” (PLoS ONE, 2017).

Data set [1] relates to clinically-relevant strains of MRSA and VRSA. In words: broth microdilution MIC/MBC, panel summary. The data set is classed as cell-based. To be noted: Staphylococcus aureus, summary over the MRSA isolates of Table 1; read-out: concentration inhibiting growth of MRSA isolates (MIC). The procedure:
(§1) The broth microdilution assay was employed to determine the MIC of compounds 1, 2, and vancomycin against five MRSA strains, four VRSA strains, one highly mupirocin-resistant S. aureus strain, one biofilm-forming S. aureus (ATCC 6538) strain, and one biofilm-forming methicillin-resistant S. epidermidis strain, as per the guidelines of the Clinical and Laboratory Standards Institute (CLSI). […] The MBC was determined by plating an aliquot (5 μL) from wells with no growth onto TSA plates. Plates were incubated at 37 °C for 19 hours before recording the MBC (concentration where no growth was observed on TSA plates).
A general note: In broth dilution the organism is exposed to a series of concentrations in liquid medium.

In another data set the test system is MRSA. Set-up: method as in PMID 28249208. To be noted: C. elegans; ref [21]; cited from earlier work.
In data set [2] the test system is S. aureus ATCC 6538 biofilm. In words: biofilm mass disruption, crystal violet reporter assay. The data set is classed as cell-based, Staphylococcus aureus. As to conditions: all concentrations tested. The procedure:
(§2) Compounds 1, 2, and vancomycin were examined for their ability to eradicate mature staphylococcal biofilm using the microtiter dish biofilm formation assay. S. epidermidis NRS101 and S. aureus ATCC 6538 were selected as the test organisms given their ability to form strong adherent biofilm. An overnight culture of bacteria was diluted (1:100 in TSB + 1% glucose) and transferred to a 96-well plate. The plate was incubated for 24 hours at 37 °C in order to form adherent biofilm on the surface of the plate wells. The medium containing the bacterial suspension was removed and the biofilm was washed with sterile PBS to remove planktonic cells. Compounds 1, 2, or vancomycin (from 128 to 1 μg/mL), in triplicate, in TSB were incubated with the biofilm for 24 hours at 37 °C.
(§3) Compounds were subsequently removed. The biofilm was washed with PBS and then stained with 1% (w/v) crystal violet for 40 minutes. The stain was removed and wells were washed with sterile PBS. Wells were next decolorized using 95% ethanol. The optical density of each well at 595 nm was measured using a microplate reader.
For orientation: Reporter assays use an easily measured gene product as a stand-in for the process of interest.

A short description of data set [3]: aqueous solubility assessment (turbidity). It counts as physicochemical. As to conditions: aqueous buffer, kinetic from dmso stock. The procedure:
The solutions were diluted 100-fold into PBS in a 96-well plate and mixed. The absorbance of the PBS-containing plate was measured prior to addition of the test agents to determine the background absorbance. After two hours, the presence of precipitate was detected by turbidity (absorbance at 540 nm). […] The solubility limit is reported as the highest experimental concentration with no evidence of turbidity.

The next data set deals with VRS4. As to the kind of experiment: microbe, parasite or virus in culture. As to conditions: VRS4, compound at ½ × MIC. The data set is classed as cell-based, Staphylococcus aureus. The procedure:
CAMHB was inoculated with strain VRS4 or strain VRS10 (5×10^5 CFU/mL), as described previously, with the following modifications. Aliquots ([…]) of the bacterial suspension were divided into micro-centrifuge tubes and compounds 1 or 2 (at ½ × MIC) were introduced into each tube. After 30 minutes of incubation at room temperature, samples from each tube were transferred to a new micro-centrifuge tube, prior to addition of vancomycin (at 128 μg/mL). Plates containing the test agents and bacteria were then incubated at 37 °C for 20–22 hours after which the MIC value was determined. A fold-reduction was calculated by comparing the MIC of vancomycin compared to the MIC of vancomycin given in combination with compounds 1 or 2 (at ½ × MIC).

For data set [4], the system named is S. epidermidis NRS101 biofilm. As to the kind of experiment: biofilm mass disruption, crystal violet reporter assay. As to conditions: even at 128 μg/mL, 24-hour treatment. The data set is classed as cell-based, Staphylococcus epidermidis. The procedure: as §2, §3
Another data set concerns MRSA USA300 (NRS384). As to the kind of experiment: time-kill assay. It counts as cell-based, Staphylococcus aureus. As to conditions: 4 × MIC; for reduction of MRSA CFU/mL: within two hours.
Data set [5] deals with S. aureus ATCC 6538 biofilm. In words: bacterial CFU inside mature biofilm post-treatment. It counts as cell-based, Staphylococcus aureus. To be noted: 24 hours. The procedure: as §2
For enumeration of viable CFU inside the biofilm, compounds were removed, wells were washed with sterile PBS, and treated with 0.25% Trypsin-2.21 mM EDTA solution as described elsewhere. The solution containing cells was transferred to a 96-well plate, serially diluted in PBS, and plated on TSA. Plates were incubated at 37 °C for 19 hours before viable CFU were counted. Data are presented as average log10(CFU/mL) of bacteria present in the biofilm post-treatment.

A further data set concerns S. aureus ATCC 6538. In words: broth microdilution MIC. The data set is classed as cell-based. To be noted: Staphylococcus aureus, ATCC6538; S. aureus ATCC 6538, biofilm-forming strain; read-out: MIC. The procedure: as §1
A further data set relates to S. epidermidis NRS101. As to the kind of experiment: broth microdilution MIC. It counts as cell-based. To be noted: Staphylococcus epidermidis; S. epidermidis NRS101, biofilm-forming strain; read-out: MIC. The procedure: as §1
In data set [6] the test system is S. aureus NRS107 (RN4220). In words: accumulation of UDP-N-acetylmuramyl pentapeptide (HPLC-MS). It counts as cell-based, Staphylococcus aureus. As to conditions: 10 × MIC, 30 minutes. The procedure:
The accumulation of UDP-N-acetylmuramyl pentapeptide was detected using a procedure described in a previous study, with the following modifications. S. aureus NRS107 (RN4220), in early logarithmic growth stage (OD600 ~ 0.60), was incubated with 130 μg/mL chloramphenicol for 15 minutes at 37°C. […] Untreated samples served as a negative control. Samples were centrifuged at 10,000 rpm for five minutes, the supernatant discarded, and the pellet re-suspended in sterile deionzined water (1 mL). The pellet was boiled at […] for 30 minutes before samples were chilled on ice for 10 minutes. UDP-N-acetylmuramyl-pentapeptide was measured using an Agilent High Performance Liquid Chromatography coupled to a time-of-flight Mass Spectrometer (HPLC-MS). A Waters XBridge Phenyl (2.1 × 100 mm, 3.5 μm) chromatography column was used, with mobile phases of water, 0.1% formic acid (Buffer A) and acetonitrile, 0.1% formic acid (Buffer B). A gradient of 5–20% Buffer B over 14 minutes was used, with a flow rate of 0.3 mL/min. An electrospray source was used, in positive ionization mode. Extracted Ion Chromatograms (EIC) were generated at a mass-to-charge ratio (m/z) of 1150.3588 (20 ppm window). Mass error for UDP-N-acetylmuramyl-pentapeptide was <1 ppm.

For the next data set, the system named is Bacillus subtilis. As to the kind of experiment: Bacterial Cytological Profiling (BCP). It counts as cell-based. As to conditions: two hours, LB-MSM osmotically buffered media, 37 °C. The procedure: B. subtilis cells were grown in Luria Bertani (LB) medium at 37 °C until the optical density at 600 nm (OD600) was ~0.20. Cells were then left untreated or treated with compound 1 or control antibiotics in the presence of methylsulfonylmethane (MSM), as described previously. After two hours, cells were stained with FM 4−64 (1 μg/mL) to visualize cell membranes; DAPI (1 μg/ml) to visualize DNA, and SYTOX Green (1 μg/mL), a vital stain which is normally excluded from cells with an intact membrane but brightly stains cells that are lysed. Images were collected using a Delta Vision Spectris Deconvolution microscope, as described previously.

Each structure is given as a SMILES string. In brackets after ≈: the same amount, converted by molar mass. Some results are limits rather than exact numbers.

As to `C/C(=N\NC(=N)N)c1ccc(NC(=O)Nc2ccc(OC3CCCCCC3)cc2)cc1` [compound 2], the MIC in data set [1] was at least 4 µg/mL; in the data set on S. aureus ATCC 6538 it was 8 µg/mL (≈ 18.9 µM); in the data set with S. epidermidis NRS101, 4 µg/mL (≈ 9.47 µM). The “reducing the burden of MRSA in infected worms” value in the data set with MRSA is given as “superior to vancomycin”. The “change in optical density of S. aureus biofilm (biofilm mass)” value in data set [2] is given as “no change”. Further, in data set [3], the solubility at 2 h amounted to 5.15 µg/mL (≈ 12.2 µM). Also, the “Fold re-sensitization of VRSA to vancomycin” value in the data set with VRS4 is given as 7-fold. Besides, in data set [4], the “decrease in S. epidermidis biofilm mass” value is reported as “no decrease”. Besides, in the data set with MRSA USA300 (NRS384), the “time to completely eradicate a high inoculum of MRSA (~10^6 CFU/mL)” value is “within four hours”. Further, the “reduction of MRSA CFU/mL” value in the data set with MRSA USA300 (NRS384) is listed as 3 log10. In addition, the “reduction in bacterial CFU within S. aureus biofilm” value worked out at 0.8 log10 in data set [5] (64 μg/mL) and 1.76 log10 in data set [5] (128 μg/mL).

Turning to `C/C(=N\NC(=N)N)c1ccc(NC(=O)Nc2ccc(OCCC(C)C)cc2)cc1` [compound 1], the MIC in data set [1] is at least 4 µg/mL; in the data set with S. aureus ATCC 6538, 4 µg/mL (≈ 10.1 µM); with S. epidermidis NRS101 it was 2 µg/mL (≈ 5.04 µM). In addition, the “change in optical density of S. aureus biofilm (biofilm mass)” value in data set [2] is “no change”. This compound displayed a solubility at 2 h in data set [3] of 23.9 µg/mL (≈ 60.4 µM). For the same compound, the UDP-N-acetylmuramyl pentapeptide accumulation entry in data set [6] was “notable increase”. The “decrease in S. epidermidis biofilm mass” value in data set [4] is recorded as “no decrease”. Further, in the data set with MRSA USA300 (NRS384), the “time to completely eradicate a high inoculum of MRSA (~10^6 CFU/mL)” value is recorded as “within four hours”. Moreover, the “reduction of MRSA CFU/mL” value in the data set with MRSA USA300 (NRS384) was determined as 3 log10. For the same compound, in the data set on Bacillus subtilis, the “cytological profile (cell morphology)” value is on record as “cell shape defects”. The “reduction in bacterial CFU within S. aureus biofilm” value is reported as 0.9 log10 in [5] (64 μg/mL) and 3.0 log10 in data set [5] (128 μg/mL).

A word on the solubility: it is how much of the substance goes into solution per volume. Lower therefore signals a poorly soluble substance.
